From patent US3989837A, “Pharmaceutical compositions” (Chinoin Gyogyszer-es Vegyeszeti Termekek Gyara RT, priority 1972, dated 1976) come the findings set out here.

Molecules are shown by their SMILES.

The data set deals with rats. Description: Testing of ulcerogenic effect in rats (Table 5). In kind it is in vivo, rat. To be noted: 5 days. The protocol:
Unstarved rats weighing 160-180 g. were used for the experiment. The animals were divided into groups of 20. The compounds were administered as 1% suspensions stabilized with methylcellulose, by the oral route, at a volume of 0.2 ml./100 g. Treatment was continued for 5 days (1 treatment/day), and was suspended on the 6th and 7th day. On the 8th experimental day the […] were killed by ether overdosage. After laparatomy the stomachs were removed, washed twice in water and thereafter dipped in formaline. An incision was made along the large curvature, then again rinced with water and spread on a PVC plate. The gastric mucosa is evaluated macroscopically by two methods:
1. The ulcer index was calculated. The animals were divided into groups on the ground of the diameter of the largest ulcer and the extent of the changes was scored as follows:
The number of animals in the individual groups was multiplied by the number of scores and the proucts of multiplications are added and the sum thus obtained is divided by the number of animals.
2. Ulcer counts were calculated. The number of ulcers was counted on each stomach and the total number of ulcers was divided by the number of animals. […] Changes found in the intestinates were evaluated as "all or naught" and expressed in per cent of the number of animals.

`COc1ccc2c(c1)c(CC(=O)OCC(Cl)(Cl)Cl)c(C)n2C(=O)c1ccc(Cl)cc1` [Example 5, 1-(p-chlorobenzoyl)-2-methyl-5-methoxy-indol-3-yl-acetic-acid trichloroethyl ester]: where the note is “oral 27.3 mg./kg.”, the Deaths was 1/20, the “Number of surviving animals” value is listed as 19, the “Per cent of animals exhibiting changes of intest. mucosa” value is 10.5 Per cent and the “Ulcer number” value turned out to be 0. Further, for the setting “oral 54.7 mg./kg.”, the Deaths is listed as 5/20, the “Number of surviving animals” value came to 15, the “Per cent of animals exhibiting changes of intest. mucosa” value worked out at 80 Per cent and the “Ulcer number” value came out at 0.27.
